Reference: ChEMBL document CHEMBL4138229, “Recent discovery of indoleamine-2,3-dioxygenase 1 inhibitors targeting cancer immunotherapy” (Eur J Med Chem, 2018)
Blank lines part the entries; values can stand above or below the compound they belong to.

Tests used:
[1] = target: T1, Tryptophan 2,3-dioxygenase (Homo sapiens, UniProt P48775); assay: Inhibition of TDO (unknown origin)
[2] = target: Indoleamine 2,3-dioxygenase 1 (Mus musculus, UniProt P28776); assay: Inhibition of IDO1 in mouse P815 Clone 12 cells assessed as reduction in kynurenine production incubated for 16 to 18 hrs; type: cell-based
Sequence of Indoleamine 2,3-dioxygenase 1 (Mus musculus, UniProt P28776) (P28776 whole entry): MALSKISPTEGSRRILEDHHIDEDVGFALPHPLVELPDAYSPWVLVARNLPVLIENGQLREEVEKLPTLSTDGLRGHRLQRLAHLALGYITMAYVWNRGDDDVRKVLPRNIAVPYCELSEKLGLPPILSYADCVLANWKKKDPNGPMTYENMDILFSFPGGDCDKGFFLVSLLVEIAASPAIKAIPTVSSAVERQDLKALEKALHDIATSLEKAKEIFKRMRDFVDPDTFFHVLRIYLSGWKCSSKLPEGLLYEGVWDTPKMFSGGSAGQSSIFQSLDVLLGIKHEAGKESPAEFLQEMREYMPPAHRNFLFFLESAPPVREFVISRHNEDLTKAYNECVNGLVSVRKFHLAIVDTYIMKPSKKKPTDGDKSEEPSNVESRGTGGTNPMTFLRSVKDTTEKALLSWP

[3] = target: T1, Tryptophan 2,3-dioxygenase; assay: Inhibition of human TDO expressed in T-REx-293 cells; type: cell-based
[4] = target: T2, Indoleamine 2,3-dioxygenase 2 (Homo sapiens, UniProt Q6ZQW0); assay: Inhibition of human IDO2 using Trp as substrate after 90 mins by Bridge-IT tryptophan fluorescence assay
T2 sequence (Q6ZQW0 whole entry): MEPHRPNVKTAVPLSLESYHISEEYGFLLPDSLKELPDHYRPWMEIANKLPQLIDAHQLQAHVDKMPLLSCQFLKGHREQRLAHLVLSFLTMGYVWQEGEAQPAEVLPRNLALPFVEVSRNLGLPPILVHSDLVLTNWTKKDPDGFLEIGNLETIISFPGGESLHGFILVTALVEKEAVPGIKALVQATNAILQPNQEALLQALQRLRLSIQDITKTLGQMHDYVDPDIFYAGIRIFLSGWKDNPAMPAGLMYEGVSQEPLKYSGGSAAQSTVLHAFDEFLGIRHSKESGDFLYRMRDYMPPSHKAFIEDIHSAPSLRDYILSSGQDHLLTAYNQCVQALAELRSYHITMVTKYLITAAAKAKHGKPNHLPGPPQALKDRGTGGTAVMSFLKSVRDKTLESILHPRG

[5] = target: T1, Tryptophan 2,3-dioxygenase; assay: Inhibition of human TDO using Trp as substrate after 90 mins by Bridge-IT tryptophan fluorescence assay
[6] = target: T3, Indoleamine 2,3-dioxygenase 1 (Homo sapiens, UniProt P14902); assay: Inhibition of IDO1 in human HeLa assessed as reduction in kynurenine production; type: cell-based
T3 sequence (P14902 whole entry): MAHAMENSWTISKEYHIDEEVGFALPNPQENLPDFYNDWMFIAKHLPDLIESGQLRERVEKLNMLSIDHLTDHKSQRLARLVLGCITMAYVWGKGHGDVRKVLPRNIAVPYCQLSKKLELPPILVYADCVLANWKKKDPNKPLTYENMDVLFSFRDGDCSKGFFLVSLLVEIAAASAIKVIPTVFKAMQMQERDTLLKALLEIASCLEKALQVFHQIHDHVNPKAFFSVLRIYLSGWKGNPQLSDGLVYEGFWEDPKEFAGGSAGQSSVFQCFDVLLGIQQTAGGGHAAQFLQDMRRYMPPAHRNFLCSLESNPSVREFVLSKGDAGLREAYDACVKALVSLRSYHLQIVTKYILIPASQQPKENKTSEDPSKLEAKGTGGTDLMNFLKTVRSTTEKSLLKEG

[7] = target: T3, Indoleamine 2,3-dioxygenase 1; assay: Inhibition of human IDO1 assessed as reduction in kynurenine production
[8] = target: T3, Indoleamine 2,3-dioxygenase 1; assay: Inhibition of IDO1 (unknown origin) assessed as reduction in kynurenine production by spectraphotometric assay
[9] = target: T3, Indoleamine 2,3-dioxygenase 1; assay: Inhibition of IDO1 (unknown origin) after 60 mins
[10] = target: T3, Indoleamine 2,3-dioxygenase 1; assay: Inhibition of IDO1 in human HeLa cells assessed as reduction in kynurenine production; type: cell-based

T1 sequence (P48775 whole entry): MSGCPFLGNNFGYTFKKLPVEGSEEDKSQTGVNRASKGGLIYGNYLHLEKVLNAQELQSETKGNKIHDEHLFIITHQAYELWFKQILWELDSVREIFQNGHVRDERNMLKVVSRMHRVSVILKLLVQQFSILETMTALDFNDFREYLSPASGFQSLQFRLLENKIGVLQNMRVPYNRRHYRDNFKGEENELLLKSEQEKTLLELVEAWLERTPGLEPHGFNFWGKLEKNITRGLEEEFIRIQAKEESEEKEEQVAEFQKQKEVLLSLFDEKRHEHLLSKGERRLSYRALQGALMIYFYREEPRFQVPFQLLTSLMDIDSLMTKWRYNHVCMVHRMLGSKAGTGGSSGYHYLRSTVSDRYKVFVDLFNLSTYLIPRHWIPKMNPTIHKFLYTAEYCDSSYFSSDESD

SMILES: Cc1ccc(-c2csc3nnc(SCC(=O)Nc4ccc5c(c4)OCO5)n23)cc1
IC50 [4]: > 250 µM
IC50 [5]: > 62.5 µM

SMILES: O/N=C(/CCC1CCCCC1)Nc1cccc(Cl)c1
IC50 [8]: < 1 µM

SMILES: CS(=O)(=NC#N)NCCNc1nonc1/C(=N/O)Nc1ccc(F)c(Br)c1 (stereo unspecified)
IC50 [9]: 0.011 µM
IC50 [10]: 0.0018 µM

Continued, values first:

IC50 [1]: > 50 µM
IC50 [2]: 0.094 µM
SMILES: O=C1CC(c2c[nH]c3ccc(F)cc23)C(=O)N1 (stereo unspecified) [PF-06840003]

IC50 [1]: 0.14 µM
IC50 [3]: 1.5 µM
SMILES: O[C@H](C[C@H]1c2c(F)cccc2-c2cncn21)[C@H]1CC[C@H](O)CC1 [NAVOXIMOD]

IC50 [6]: 0.003 µM
IC50 [7]: 0.018 µM
SMILES: NS(=O)(=O)NC1(CCNc2nonc2/C(=N/O)Nc2ccc(F)c(Br)c2)CC1
